Data published in patent US20160120863A1, “SLC2A TRANSPORTER INHIBITORS” (IOMET PHARMA LTD., priority 2013, published 2016).
Read-outs that look alike come from different tables or passages of the source.

Assays:
Type in all cases: cell-based
[1] = test system: [3H]-deoxy-D-glucose uptake; test: Glucose uptake assay with compound 155 (inhibition of [3H]-deoxy-D-glucose uptake, FIG. 2A); settings: read-out: Glucose Uptake pIC50 (converted)
[2] = test system: A549 adenocarcinoma NucLight Red cells; test: Apoptosis induction assay, Caspase 3/7 reagent, IncuCyte; settings: Homo sapiens, Caspase 3/7, AUC analysis of first 24 hours of compound exposure
Description: (§1) A549 adenocarcinoma NucLight Red cells were grown in Ham's F12K medium supplemented with 10% foetal bovine serum, 2 mM Glutamax, 1% pen/strep and 0.5 μg ml-l puromycin. Cells were seeded at 1×10^4 cells per well into 384-well microtitre-plates with media containing 5 mM (FIGS. 3A and 3C) or 17 mM glucose (FIGS. 3B and 3D). The cells were left to adhere before the addition of increasing concentration of test compound (compound 155) and vehicle control. The cells stably expressed Essen CellPlayer NucLight Red Fluorescent Protein to allow measurement of cell proliferation (FIGS. 3 A and B). The culture medium contained Essen CellPlayer 96-well Kinetic Caspase 3/7-reagent and Biotium DEVD-NucView 488 to allow measurement of apoptosis induction (FIGS. 3 C and D). Cells were monitored continuously for 48 hours of compound exposure using Essen IncuCyte.
(§2) pIC50 values for the proliferation and apoptosis assays were derived from area under the curve (AUC) analysis of data from the first 24 hours of compound exposure.

human GLUT1 = target: T1, human GLUT1 (Homo sapiens, UniProt P11166); test: [3H]-deoxy-D-glucose uptake assay, GLUT1; settings: [3H]-deoxy-D-glucose uptake in HEK293 cells stably expressing human GLUT1
T1 construct: expressed in transfected cells
T1 sequence (P11166 1-492): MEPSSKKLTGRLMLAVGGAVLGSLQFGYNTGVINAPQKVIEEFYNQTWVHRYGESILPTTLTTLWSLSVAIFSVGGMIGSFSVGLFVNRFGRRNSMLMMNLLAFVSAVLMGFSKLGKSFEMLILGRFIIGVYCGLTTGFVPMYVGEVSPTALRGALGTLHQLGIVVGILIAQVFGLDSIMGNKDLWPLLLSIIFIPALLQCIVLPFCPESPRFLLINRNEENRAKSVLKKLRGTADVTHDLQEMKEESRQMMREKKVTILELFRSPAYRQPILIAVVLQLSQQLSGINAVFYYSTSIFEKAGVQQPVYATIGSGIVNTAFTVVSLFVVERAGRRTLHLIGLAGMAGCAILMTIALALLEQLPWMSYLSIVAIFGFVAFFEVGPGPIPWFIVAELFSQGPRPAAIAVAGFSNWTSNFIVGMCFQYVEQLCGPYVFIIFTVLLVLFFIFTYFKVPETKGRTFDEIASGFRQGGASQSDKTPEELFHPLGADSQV
Outline: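 HEK293 cells stably overexpressing human GLUT1 or GLUT2, seeded at 60,000 per well, treated with compounds in glucose-free uptake buffer for 30 min at 37 °C. [3H]-deoxy-D-glucose uptake quantified by scintillation counting after ice-cold PBS washes; IC50 determined.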

A549 cells = test: Lactate production assay (lactate secretion, 5 or 17 mM glucose); settings: Homo sapiens, 4 hours incubation
Description: A549 cells were grown in DMEM/F12K+L-Glutamine supplemented with 10% foetal bovine serum. Cells were re-suspended in assay media (DMEM without phenol red, pyruvate and glucose, 10% foetal bovine serum, 2 mM L-Glutamine and 5 or 17 mM glucose) and seeded at 40×10^3 cells per well into 96-well plates and incubated overnight. Increasing concentrations of the test compound (compound 155) and vehicle control were added and incubated for 4 hours at 37° C., 5% CO2. Lactate reagent was added (Trinity Biotech), the plates were incubated in the dark for 7 min at room temperature before capturing the absorbance at 540 nm using a plate reader.

[3] = test system: A549 adenocarcinoma NucLight Red cells; test: Cell growth (proliferation) assay, NucLight Red, IncuCyte; settings: Homo sapiens, AUC analysis of first 24 hours of compound exposure
Description: as §1, §2

N#Cc1ccccc1-c1ccc2nc(-c3ccc(Cl)cc3)c(CN3CCN(C(=O)c4cccc(F)c4)CC3)n2c1 [Compound 155]
IC50 [1]: 25.7 nM
IC50 ([2]; 5 mM glucose, read-out: Apoptosis (5 mM glucose) pIC50 (converted)): 316 nM
IC50 ([2]; 17 mM glucose, read-out: Apoptosis (17 mM glucose) pIC50 (converted)): 813 nM
GLUT1 pIC50 (human GLUT1): +++ (pIC50 ≧ 6.00)
IC50 (A549 cells; 5 mM glucose, read-out: Lactate Secretion (5 mM glucose) pIC50 (converted)): 77.6 nM
IC50 (A549 cells; 17 mM glucose, read-out: Lactate Secretion (17 mM glucose) pIC50 (converted)): 398 nM
IC50 ([3]; 5 mM glucose, read-out: Proliferation (5 mM glucose) pIC50 (converted)): < 126 nM
IC50 ([3]; 17 mM glucose, read-out: Proliferation (17 mM glucose) pIC50 (converted)): 380 nM
